Tests used:
α-thrombin = test: human α-thrombin; details: 37 °C, up to 4 h
[1] = cited from earlier work

Q: With “GEPGAPIDYDEYGDSSEEVGGAEVAQPKLYQRGEGGNGMEPIPEDYLQ (the three Y O-sulfated, R1,2,3 = SO3-)” as the substance, how does the not cleaved (α-thrombin) read?
A: Its not cleaved is under 10% cleavage after 4 h.

Q: Which “plasma half-life in vivo” value [1] does the source give for bivalirudin here?
A: The value was about 30 min.
